According to ChEMBL document CHEMBL3507680, “University of Dundee, Gates Library screen for HepG2 cell viability”:

Assay: Human HepG2 cell viability assay in 384 well format
Type: toxicity, cell-based
Set-up: dose 125 nL, time 70.5 hour; cytotoxicity at 70.5 h: concentration not given beside the values
Settings: HepG2 cells, read-out: Inhibition

SMILES | cytotoxicity at 70.5 h
Cc1ccc(CC(=O)N2CCC(Nc3cccnn3)CC2)s1 | 0.908%
COCC(c1cccc(C(F)(F)F)c1)N(C)C(=O)c1cccnc1 (stereo not drawn) | -1.51%
CC(C(=O)N1CCCN(Cc2cnn(C)c2)CC1)n1ccnc1 (stereo not drawn) | 23.2%
Cc1ccc(C(=O)NC(CN2CCCC2=O)c2ccccc2)cn1 (stereo not drawn) | 2.77%
CC(C)c1ccc(OCCC(=O)N2CCC(C(=O)N(C)C)CC2)cc1 | -3.99%
Cc1nccc(C(=O)NC(CN2CCCC2=O)c2ccccc2)n1 (stereo not drawn) | -3.75%
COc1c(CNCc2ccnc(N(C)C)c2)c(C(C)C)nn1C | 0.688%
CC(C)c1nn(C)c(N(C)C)c1CNCc1ccc(N(C)C)nc1 | 3.68%
CC(C(=O)N1CCN(Cc2ccc3c(c2)OCO3)CC1)n1ccnc1 (stereo not drawn) | 0.67%
CCNC(=O)NC(=O)CN1CCC(c2cccc(F)c2)C1 (stereo not drawn) | -2.05%
CCn1c(CN2CCN(C(=O)C3CCC3)CC2)nc2c(F)cccc21 | 1.75%
CCNc1cc2c(nn1)CCN(C(=O)c1nccnc1N)C2 | -2.38%
CCNc1cc2c(nn1)CCN(C(=O)c1ccc3c(c1)OCO3)C2 | -4.42%
Cc1ccc(NC2CCN(C(=O)Cc3c(C)nn(C)c3C)CC2)nn1 | -1.21%
COCC(c1cccc(C(F)(F)F)c1)N(C)C(=O)c1ccco1 (stereo not drawn) | -1.02%
CC(C)c1cc(NC(=O)CN2CCn3c(nnc3C3CC3)C2)on1 | 19.6%
CC(C)(C)c1cc(NC(=O)CN2CCn3c(nnc3C3CC3)C2)on1 | 3.06%
O=C(CCc1ccccc1Cl)NS(=O)(=O)c1ccc2c(c1)OCCO2 | -2.93%
OC(COCc1ccc2c(c1)OCO2)CN1CC(n2cccn2)C1 (stereo not drawn) | 3.04%
c1ncn(CC2CN(Cc3nc(-c4ccsc4)no3)CCO2)n1 (stereo not drawn) | -6.98%

SMILES | cytotoxicity at 70.5 h
OC(COCc1ccccc1)CN1CC(n2cccn2)C1 (stereo not drawn) | -3.54%
Cc1nc(CN2CCN(C(=O)NC(C)c3cccnc3)CC2)cs1 (stereo not drawn) | 30.6%
OC(COCc1ccc(Cl)cc1)CN1CC(n2cccn2)C1 (stereo not drawn) | -2.28%
Cc1nc(C)n(CC2CCCN2Cc2nc(-c3ccccn3)no2)n1 (stereo not drawn) | -7.25%
CC(=O)NC(CC(=O)Nc1ccc(C)cn1)c1ccccc1 (stereo not drawn) | -6.79%
Cc1cc(CN2CCN(C(=O)NC(C)c3cccs3)CC2)on1 (stereo not drawn) | -5.41%
Cc1cc(CN2CCN(C(=O)NC(C)c3ccncc3)CC2)on1 (stereo not drawn) | -9.79%
Cc1cc(CN2CCN(C(=O)NC(C)c3ccc(C)o3)CC2)on1 (stereo not drawn) | -9.49%
Cc1cc2n(n1)CC(CNCc1ccccc1-n1cccn1)CN2 (stereo not drawn) | -4.8%
COC(=O)c1cc(C(=O)N2CCC(OC)CC2)n(-c2ccccc2)n1 | -2.53%
O=C(c1ccc(-n2cccn2)nc1)N1CCCC(n2cccn2)C1 (stereo not drawn) | -7.62%
Cc1ccc(-c2noc(CN3CCOC(Cn4cccn4)C3)n2)cc1 (stereo not drawn) | -3.88%
Cc1ccccc1-c1noc(CN2CCOC(Cn3cccn3)C2)n1 (stereo not drawn) | -10.3%
CCc1nnc2n1CCN(Cc1ncc(-c3ccc(F)cc3)o1)C2 | -6.74%
Cc1cnn(CC2CCCN2C(=O)CCc2cscn2)c1 (stereo not drawn) | -13.6%
CCc1nnc2n1CCN(Cc1ncc(-c3ccccc3)o1)C2 | -13.5%
CC(C(=O)NCc1ccnc(N2CCCCCC2)c1)n1cccn1 (stereo not drawn) | 17.8%
Cc1ccc(CNC2CCCN(Cc3noc(C4CC4)n3)C2)s1 (stereo not drawn) | 28.4%
Cc1cnn(CCNCc2nc(CNC(=O)c3ccccc3)no2)c1 | 22.6%
CCc1nc(CN2CCCC(NCc3cnc(C)s3)C2)no1 (stereo not drawn) | 22.5%

SMILES | cytotoxicity at 70.5 h
Cc1noc(CNC2CCCN(Cc3noc(C4CC4)n3)C2)n1 (stereo not drawn) | -2.29%
Cc1cc(CNC2CCCN(Cc3noc(C4CC4)n3)C2)on1 (stereo not drawn) | 23.9%
CC(C)c1nc2c(n1C)CCN(Cc1cccc(OCC(N)=O)c1)C2 | 0.112%
Cc1ccsc1CNC1CCCN(Cc2noc(C3CC3)n2)C1 (stereo not drawn) | -2.45%
CCc1ccc(C(=O)N2CCN(CCO)CC2)o1 | -1.18%
O=C(c1cc2c(s1)CCC2)N1CCCC1c1noc(C2CC2)n1 (stereo not drawn) | -0.753%
c1coc(-c2nc(CNCCn3cccn3)cs2)c1 | -5.85%
CCc1nc(C2CCCN2CC(=O)N2CCc3ccccc32)no1 (stereo not drawn) | -5.32%
c1csc(-c2nc(CNCCn3cccn3)cs2)c1 | -7.37%
O=C(c1ccc2c(c1)CCO2)N1CCN(c2cnccn2)CC1 | -5.33%
O=C(Cc1ccc2c(c1)CCC2)N1CCN(c2cnccn2)CC1 | 2.45%
CCOc1ccccc1OC1CCN(C(=O)c2cnsn2)CC1 | -1.79%
Cc1cc(C)c(CNC(=O)Cc2ccc3c(c2)CCCC3)c(=O)[nH]1 | -7.45%
Cc1cc(C)c(CNC(=O)NC(C)c2ccc3c(c2)CCC3)c(=O)[nH]1 (stereo not drawn) | 25.3%
Cc1cc(C)c(CNC(=O)NCc2ccc3c(c2)OCCO3)c(=O)[nH]1 | 0.304%
CCn1ccnc1CN1CCN(Cc2cccc(C#N)c2)CC1 | 21.4%
Cc1ccc(O)c(CNC2CCCN(Cc3noc(C4CC4)n3)C2)n1 (stereo not drawn) | -4.57%
CC(C)c1nc(C2CCCN(C(=O)Cn3ccccc3=O)C2)no1 (stereo not drawn) | -1.03%
